How the values were obtained:
Type in all cases: in vivo
[1] = system: Coptotermes formosanus; experiment: Test Example 20: treated sandy soil, termite mortality and abnormal ratio with time
Method: Sandy soil passed through a sieve of 20 mesh, was dried at a temperature of 60° C. to a constant weight, and 4 g of the soil thus obtained, was packed into a cup having a diameter of 60 mm. 1 ml of a pesticide solution adjusted to a predetermined concentration was added and thoroughly mixed, whereupon 15 termite workers (Coptotermes formosanus) were leased. The cup was placed in a container having wet cotton laid over the bottom, and the container was maintained at room temperature of 25° C., whereby the number of dead termites in the cup was examined as the time passed, and the mortality was calculated.

[2] = system: Lasius japonicus; experiment: Test Example 22: cotton ball with compound in 10% cane sugar solution, ant mortality
Method: 10 Ants (Lasius japonicus) were put into a test tube together with a cotton ball impregnated with 0.5 ml of a solution containing a sample compound in a predetermined concentration and containing 10% of cane sugar. […]

[3] = system: Reticulitermes speratus; experiment: Test Example 3: treated filter paper in Petri dish, termite mortality after 37 days
Method: (§1) Mortality (%)=(Number of dead termite workers/15 termite workers)×100
(§2) Further, by the Colby's formula, the theoretical value (%) of mortality can be calculated. In a case where the actual mortality (%) is higher than the theoretical value (%), it can be said that the composition of the present invention has a synergistic effect for controlling the house insect pest.
(§3) A filter paper having a diameter of 80 mm was placed in a plastic Petri dish, and 1 ml of a pesticide solution having a predetermined concentration, was dropped thereon. After the treatment, the solvent was sufficiently evaporated, and then, 1 ml of distilled water was impregnated to the treated filter paper, whereupon 10 termite workers (Reticulitermes speratus) were released. The plastic Petri dish was placed in a container having wet cotton laid over the bottom, and the container was maintained at 25° C. for 37 days, whereupon the number of dead termites in the Petri dish was examined, and the mortality was calculated in the same manner as in Test Example 1.

[4] = system: Coptotermes formosanus; experiment: Test Example 17: dust placed in ant trail, termite mortality with time; conditions: 0.5% dust, 10 mg in ant trail
Method: Soil was packed in a cylindrical connection section made of an acrylic resin connecting two cups made of acrylic resin (i.e. cups each having a hole with a diameter of 10 mm formed in the bottom and having hard plaster (Dental Stone) set at the bottom in a thickness of 10 mm), and 30 termite workers and 3 termite soldiers (Coptotermes formosanus) were released to let them form an ant trail. Then, at the center portion of the ant trail, 10 mg of a dust prepared by mixing in a mortar 0.5 part by weight of a sample compound and 99.5 parts by weight of cellulose powder, was placed. This test apparatus was put into a container having wet cotton laid over the bottom and kept at room temperature of 25° C., whereby the number of dead termites in the cup was examined as the time passed, and the mortality was calculated. Further, for the purpose of comparison, a similar test was carried out with respect to a dust containing 0.5% of fipronil (Terminal Dust, tradename, manufactured by Aventis Crop Science Shionogi K.K.).

[5] = system: Reticulitermes speratus; experiment: Test Example 4: treated filter paper in Petri dish, termite mortality after 25 days
Method: as §1, §2
as §3, with “25” for “37”

[6] = system: Reticulitermes speratus; experiment: Test Example 9: treated filter paper in acrylic cup, termite mortality 5 and 20 days later; conditions: 1000 ppm
Method: A filter paper having a diameter of 80 mm was placed in a cylindrical cup made of acrylic resin having a diameter of 80 mm and a height of 60 mm (i.e. a cup having a hole with a diameter of 10 mm formed in the bottom and having hard plaster (Dental Stone) set at the bottom in a thickness of 10 mm), and 1 ml of a solution containing a sample compound in a predetermined concentration, was dropped thereon. Then, ten termite workers and one termite soldier (Reticulitermes speratus) were released thereon. The cup was placed in a container having wet cotton laid over the bottom, and the container was maintained at room temperature of 25° C., and 5 days later and 20 days later, the mortality of termites in the cup was examined.

[7] = system: Coptotermes formosanus; experiment: Test Example 24: treated filter paper in Petri dish, termite mortality on 21st or 28th day; conditions: 21st day
Method: as §1, §2
A filter paper having a diameter of 80 mm was placed in a plastic Petri dish, and 1 ml of a pesticide solution having a predetermined concentration was dropped thereon, whereupon 10 termite workers (Coptotermes formosanus) were released, and a cover was put on the Petri dish. This plastic Petri dish was put in a container having wet cotton laid over the bottom and maintained at room temperature of 25° C. On 21 or 28th day after the treatment, the number of dead termites in the Petri dish was examined, and the mortality was calculated in the same manner as Test Example 1.

[8] = system: Reticulitermes speratus; experiment: Test Example 21: treated sandy soil with weather resistance operation, termite mortality; conditions: 1000 ppm
Method: Sandy soil passed through a sieve of 20 mesh was dried at a temperature of 60° C. to a constant weight, and 12 g of the soil thus obtained, was packed into a cup having a diameter of 60 mm. 3 ml of a pesticide solution adjusted to a predetermined concentration, was added and sufficiently mixed, whereupon it was maintained in a constant temperature chamber of 40° C. for 95 days to carry out the weather resistance operation. After the weather resistance operation, 10 termite workers (Reticulitermes speratus) were released on this test soil. The cup was placed in a container having wet cotton laid over the bottom, and the container was maintained at room temperature of 25° C. 2 Days later and 6 days later after releasing the termites, the number of dead termites in the cup was examined, and the mortality was calculated.

[9] = 1000 ppm solution, 4 Days later
[10] = weather resistance operation Negative, 2 Days later
[11] = weather resistance operation Positive (40° C. for 95 days), 2 Days later

Q: With `CC(=NN=C(Cc1ccc(C(F)(F)F)cc1)c1ccc(F)cc1)N(C)C` [Compound No. II-2, [4′-fluoro-2-(4-trifluoromethylphenyl)acetophenone]N′-[1-(dimethylamino)ethylidene]hydrazone] as the compound, how does the Mortality ([1]; 250 ppm solution, 1 Day later) read?
A: 0%

Q: What about the Mortality ([1]; 250 ppm solution, 4 Days later) of the same compound?
A: 0%

Q: What about the abnormal ratio ([1]; 250 ppm solution, 4 Days later) of the same compound?
A: 7%

Q: What about the Mortality ([1]; 250 ppm solution, 11 Days later) of the same compound?
A: 100%

Q: What about the Mortality ([1]; 1000 ppm solution, 1 Day later) of the same compound?
A: 0%

Q: What about the Mortality [1, 9] of the same compound?
A: 73%

Q: What about the abnormal ratio [1, 9] of the same compound?
A: 27%

Q: And the Mortality ([1]; 1000 ppm solution, 11 Days later)?
A: 100%

Q: And the Mortality ([1]; 4000 ppm solution, 1 Day later)?
A: 0%

Q: What about the abnormal ratio ([1]; 4000 ppm solution, 1 Day later) of the same compound?
A: 100%

Q: What about the Mortality ([1]; 4000 ppm solution, 4 Days later) of the same compound?
A: 100%

Q: What about the Mortality ([1]; 4000 ppm solution, 11 Days later) of the same compound?
A: 100%

Q: What about the Mortality ([2]; 10 ppm, 1 Day later) of the same compound?
A: 0%

Q: And the Mortality ([2]; 10 ppm, 2 Days later)?
A: 0%

Q: What about the abnormal ratio ([2]; 10 ppm, 2 Days later) of the same compound?
A: 20%

Q: What about the Mortality ([2]; 10 ppm, 3 Days later) of the same compound?
A: 40%

Q: And the Mortality ([2]; 10 ppm, 8 Days later)?
A: 80%

Q: What about the Mortality ([2]; 10 ppm, 11 Days later) of the same compound?
A: 100%

Q: And the Mortality ([2]; 50 ppm, 1 Day later)?
A: 30%

Q: And the abnormal ratio ([2]; 50 ppm, 1 Day later)?
A: 70%

Q: And the Mortality ([2]; 50 ppm, 2 Days later)?
A: 100%

Q: What about the Mortality ([2]; 50 ppm, 3 Days later) of the same compound?
A: 100%

Q: And the Mortality ([2]; 50 ppm, 8 Days later)?
A: 100%

Q: And the Mortality ([2]; 50 ppm, 11 Days later)?
A: 100%

Q: What about the Mortality ([3]; II-2 5 ppm alone) of the same compound?
A: 10%

Q: What about the Mortality ([3]; II-2 10 ppm alone) of the same compound?
A: 20%

Q: What about the Mortality ([4]; 6 Days later) of the same compound?
A: 37%

Q: And the Mortality ([4]; 11 Days later)?
A: 100%

Q: And the Mortality ([4]; 15 Days later)?
A: 100%

Q: And the Mortality ([5]; II-2 5 ppm alone)?
A: 0%

Q: What about the Mortality ([5]; II-2 10 ppm alone) of the same compound?
A: 10%

Q: What about the Mortality ([6]; 5 Days later) of the same compound?
A: 100%

Q: What about the Mortality ([6]; 20 Days later) of the same compound?
A: 100%

Q: And the Mortality ([7]; II-2 5 ppm alone)?
A: 0%

Q: And the Mortality ([7]; II-2 10 ppm alone)?
A: 20%

Q: What about the Mortality ([7]; II-2 20 ppm alone) of the same compound?
A: 60%

Q: And the Mortality [8, 10]?
A: 50 (50) %

Q: What about the abnormal ratio [8, 10] of the same compound?
A: 50 (50) %

Q: What about the Mortality ([8]; weather resistance operation Negative, 6 Days later) of the same compound?
A: 100%

Q: What about the Mortality [8, 11] of the same compound?
A: 10%

Q: What about the abnormal ratio [8, 11] of the same compound?
A: 15%

Q: And the Mortality ([8]; weather resistance operation Positive (40° C. for 95 days), 6 Days later)?
A: 95%

Reference: patent US7655677B2, “Composition and method for controlling house insect pest” (priority 2002, dated 2010)
